Source: US20130112197A1, “OPERATING METHOD FOR AN AEROSOL DELIVERY DEVICE AND AEROSOL DELIVERY DEVICE” (PARI Pharma GmbH, priority 2010, published 2013)

Experiment: clinical trial: nasal and paranasal aerosol deposition by gamma camera imaging
Assay type: in vivo, human
Excerpt: The method of the clinical trial was: Sinus air ventilation, nasal and paranasal aerosol deposition as well as nasal clearance of aerosols delivered by different pulsating airflows, such as a combined mode in comparison to intermittent mode. This was studied in 12 healthy volunteers using gamma camera imaging with 81 mKr gas and 99 mTc-DTPA aerosol. Masking techniques were used to visualize and quantify nasal and sinus aerosol deposition and retention.

total sinus deposition in % of the deposited activity (12 healthy volunteers, maxillary and sphenoid sinuses, pulsating airflows): up to 24% | total sinus deposition in % of the deposited activity (combined mode, proband 1, post FESS volunteer): 14% | total sinus deposition in % of the deposited activity (combined mode, proband 2, normal volunteer): 6% | total sinus deposition in % of the deposited activity (intermittent mode, proband 1, post FESS volunteer): 24% | total sinus deposition in % of the deposited activity (intermittent mode, proband 2, normal volunteer): 0%
Structure (SMILES): O=C([O-])CN(CCN(CC(=O)[O-])CC(=O)[O-])CCN(CC(=O)[O-])CC(=O)[O-].[99Tc+4] [99 mTc-DTPA]
